According to patent publication US11236046B2, “Substituted heterocyclic sulfonamide compounds useful as TRPA1 modulators” (Genentech, Inc., priority 2013, dated 2022):
pIC50: −log10 of the molar value.

Target: human TRPA1 (Homo sapiens (Human), UniProt O75762)
Test: FLIPR Tetra calcium influx assay, block of cinnamaldehyde-induced calcium influx in CHO cells expressing TRPA1 (human)
Format: cell-based
Settings: 20 min compound incubation, 75 uM cinnamaldehyde (~EC80), Hill coefficient fixed to 1.5, read-out: hTRPA1 AUC IC50
Procedure: IC50 Determinations of Exemplified Compounds.
IC50s (effective concentration) of compounds on the human and rat TRPA1 channels were determined using a FLIPR Tetra instrument. CHO cells expressing TRPA1 were plated into 384-well plates, incubated overnight at 37C, and loaded with BD calcium indicator dye for 1 hr at 37° C. followed by 15 minutes. at room temperature. The assay buffer was Hank's Balanced Salt Solution (HBSS) containing 20 mM HEPES (pH readjusted to 7.4) along with 0.02% BSA.
Following dye load and plate cool down, compounds were added to the cells using FLIPR Tetra. Plates were then incubated with compounds for 20 minutes at room temperature prior to adding agonist. Following this incubation, ˜EC80 concentration of cinnamaldehyde (75 uM for human TRPA1 and 45 uM for rat TRPA1) was added to active the channels and block of cinnamaldehyde induced calcium influx was measured.
Fixing the Hill coefficient will generally reduce variability of the IC50 determination. The IC50s were individually examined to make sure the MIN and MAX points were set correctly prior to validation of the results.

human TRPA1, sequence (O75762 whole entry): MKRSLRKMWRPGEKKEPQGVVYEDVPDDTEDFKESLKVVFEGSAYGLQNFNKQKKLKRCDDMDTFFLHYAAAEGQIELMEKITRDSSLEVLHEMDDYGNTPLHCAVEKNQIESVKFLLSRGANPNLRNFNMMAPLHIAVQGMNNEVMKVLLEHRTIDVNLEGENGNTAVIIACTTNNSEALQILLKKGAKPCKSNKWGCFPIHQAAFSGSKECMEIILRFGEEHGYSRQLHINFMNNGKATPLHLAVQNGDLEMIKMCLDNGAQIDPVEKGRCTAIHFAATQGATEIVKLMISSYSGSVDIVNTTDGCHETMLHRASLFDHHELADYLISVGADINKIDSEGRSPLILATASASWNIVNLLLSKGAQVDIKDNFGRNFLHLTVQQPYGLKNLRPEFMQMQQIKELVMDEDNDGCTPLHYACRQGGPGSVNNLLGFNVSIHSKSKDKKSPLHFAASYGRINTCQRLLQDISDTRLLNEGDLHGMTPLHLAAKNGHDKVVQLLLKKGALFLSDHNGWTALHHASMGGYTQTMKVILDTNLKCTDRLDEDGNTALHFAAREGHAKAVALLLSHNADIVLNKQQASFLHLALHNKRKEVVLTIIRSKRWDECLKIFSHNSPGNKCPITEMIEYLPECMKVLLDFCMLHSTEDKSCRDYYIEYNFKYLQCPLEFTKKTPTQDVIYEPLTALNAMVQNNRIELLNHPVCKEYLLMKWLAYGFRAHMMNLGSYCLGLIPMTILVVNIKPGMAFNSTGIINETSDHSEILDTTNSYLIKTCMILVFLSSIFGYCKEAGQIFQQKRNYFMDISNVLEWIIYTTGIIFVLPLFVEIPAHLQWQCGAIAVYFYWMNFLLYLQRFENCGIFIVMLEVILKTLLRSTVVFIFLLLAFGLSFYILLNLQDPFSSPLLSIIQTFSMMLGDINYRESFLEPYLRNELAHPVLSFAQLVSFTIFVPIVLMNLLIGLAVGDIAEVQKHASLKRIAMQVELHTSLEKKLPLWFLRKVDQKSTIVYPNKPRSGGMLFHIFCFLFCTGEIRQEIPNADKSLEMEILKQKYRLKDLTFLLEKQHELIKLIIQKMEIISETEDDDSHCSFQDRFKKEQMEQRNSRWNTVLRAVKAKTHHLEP

Row | Compound | pIC50
1 | COc1nn(-c2ccc(C(F)(F)F)nc2)cc1CNC(=O)[C@@H]1C[C@@H](F)CN1S(=O)(=O)c1ccc(F)cc1 [Example 153, (2S,4R)-4-fluoro-1-[(4-fluorobenzene)sulfonyl]-N-([3-methoxy-1-[6-(trifluoromethyl)pyridin-3-yl]-1H-pyrazol-4-yl]methyl)pyrrolidine-2-carboxamide] | 7.17
2 | N#Cc1ccc(-c2cnc(C(F)(F)F)nc2)cc1CNC(=O)[C@@H]1C[C@@H](F)CN1S(=O)(=O)c1ccc(F)cc1 [Example 164, (2S,4R)—N-(2-cyano-5-(2-(trifluoromethyl)pyrimidin-5-yl)benzyl)-4-fluoro-1-((4-fluorophenyl)sulfonyl)pyrrolidine-2-carboxamide] | 7.49
3 | O=C(NCc1cc(F)cc(-c2cnc(C(F)(F)F)nc2)c1)[C@@H]1C[C@@H](F)CN1S(=O)(=O)c1ccc(F)cc1 [Example 91, (2S,4R)-4-fluoro-1-(4-fluorophenyl)sulfonyl-N-[[3-fluoro-5-[2-(trifluoromethyl)pyrimidin-5-yl]phenyl]methyl]pyrrolidine-2-carboxamide] | 7.85
4 | O=C(NCc1cc(F)cc(-c2cnc(C(F)(F)F)nc2)c1)[C@]12C[C@H]1CCN2S(=O)(=O)c1ccc(F)cc1 [Example 181, (1R,5S)-4-(4-fluorophenyl)sulfonyl-N-[[3-fluoro-5-[2-(trifluoromethyl)pyrimidin-5-yl]phenyl]methyl]-4-azabicyclo[3.1.0]hexane-5-carboxamide] | 8.00
5 | O=C(NCc1cc(F)cc(-c2ccc(C(F)(F)F)cn2)c1)[C@@H]1C[C@@H](F)CN1S(=O)(=O)c1ccc(F)cc1 [Example 95, (2S,4R)-4-fluoro-1-(4-fluorophenyl)sulfonyl-N-[[3-fluoro-5-[5-(trifluoromethyl)-2-pyridyl]phenyl]methyl]pyrrolidine-2-carboxamide] | 7.92
6 | O=C(NCc1cc(-c2cnc(C(F)(F)F)nc2)ncc1F)[C@@H]1C[C@@H](F)CN1S(=O)(=O)c1ccc(F)cc1 [Example 180, (2S,4R)-4-fluoro-1-(4-fluorophenyl)sulfonyl-N-[[5-fluoro-2-[2-(trifluoromethyl)pyrimidin-5-yl]-4-pyridyl]methyl]pyrrolidine-2-carboxamide] | 7.59
7 | O=C(NCc1cc(-c2ccc(C(F)(F)F)c(F)c2)ncn1)[C@@H]1[C@@H](F)CCN1S(=O)(=O)c1ccc(F)cc1 [Example 93, (2R,3S)-3-fluoro-N-((6-(3-fluoro-4-(trifluoromethyl)phenyl)pyrimidin-4-yl)methyl)-1-(4-fluorophenylsulfonyl)pyrrolidine-2-carboxamide] | 7.85
8 | COc1cc(CNC(=O)[C@@H]2C[C@@H](F)CN2S(=O)(=O)c2ccc(F)cc2)cc(-c2cnc(C(F)(F)F)nc2)n1 [Example 188, (2S,4R)-4-fluoro-1-(4-fluorophenyl)sulfonyl-N-[[2-methoxy-6-[2-(trifluoromethyl)pyrimidin-5-yl]-4-pyridyl]methyl]pyrrolidine-2-carboxamide] | 8.10
9 | O=C(NCc1cc(N2CCC(F)(F)CC2)c(F)cn1)[C@@H]1C[C@@H](F)CN1S(=O)(=O)c1ccc(F)cc1 [Example 128, (2S,4R)—N-[[4-(4,4-difluoro-1-piperidyl)-5-fluoro-2-pyridyl]methyl]-4-fluoro-1-(4-fluorophenyl)sulfonyl-pyrrolidine-2-carboxamide] | 6.39
10 | O=C(NCc1cc(-c2ccc(C(F)(F)F)nc2)ncc1F)[C@@H]1C[C@@H](F)CN1S(=O)(=O)c1ccc(F)cc1 [Example 141, (2S,4R)-4-fluoro-N-((5-fluoro-6′-(trifluoromethyl)-2,3′-bipyridin-4-yl)methyl)-1-(4-fluorophenylsulfonyl)pyrrolidine-2-carboxamide] | 7.17
11 | N#Cc1ccc(-c2cnc(C(F)(F)F)nc2)cc1CNC(=O)[C@@H]1[C@@H](F)CCN1S(=O)(=O)c1ccc(F)cc1 [Example 38, (2R,3S)—N-([2-cyano-5-[2-(trifluoromethyl)pyrimidin-5-yl]phenyl]methyl)-3-fluoro-1-[(4-fluorobenzene)sulfonyl]pyrrolidine-2-carboxamide] | 7.85
12 | O=C(NCc1cc(-c2cnc(C(F)(F)F)nc2)ccc1F)[C@@H]1C[C@@H](F)CN1S(=O)(=O)c1ccc(F)cc1 [Example 56, (2S,4R)-4-fluoro-N-(2-fluoro-5-(2-(trifluoromethyl)pyrimidin-5-yl)benzyl)-1-((4-fluorophenyl)sulfonyl)pyrrolidine-2-carboxamide] | 7.96
13 | COc1nn(-c2cnc(C(F)(F)F)nc2)cc1CNC(=O)[C@@H]1C[C@@H](F)CN1S(=O)(=O)c1ccc(F)cc1 [Example 132, (2S,4R)-4-fluoro-1-[(4-fluorobenzene)sulfonyl]-N-([3-methoxy-1-[2-(trifluoromethyl)pyrimidin-5-yl]-1H-pyrazol-4-yl]methyl)pyrrolidine-2-carboxamide] | 6.90
14 | O=C(NCc1cc(F)cc(-c2ccc(C(F)F)nc2)c1)[C@@H]1C[C@@H](F)CN1S(=O)(=O)c1ccc(F)cc1 [Example 94, (2S,4R)—N-[[3-[6-(difluoromethyl)-3-pyridyl]-5-fluoro-phenyl]methyl]-4-fluoro-1-(4-fluorophenyl)sulfonyl-pyrrolidine-2-carboxamide] | 7.54
15 | Nc1nc(C(F)(F)F)ccc1-c1cc(CNC(=O)[C@@H]2C[C@@H](F)CN2S(=O)(=O)c2ccc(F)cc2)ccn1 [Example 178, (2S,4R)—N-[[2-[2-amino-6-(trifluoromethyl)-3-pyridyl]-4-pyridyl]methyl]-4-fluoro-1-(4-fluorophenyl)sulfonyl-pyrrolidine-2-carboxamide] | 6.76
16 | O=C(NCc1cc(-c2ccc(C3CC3)cc2)ncn1)[C@@H]1C[C@@H](F)CN1S(=O)(=O)c1ccc(F)cc1 [Example 155, (2S,4R)—N-((6-(4-cyclopropylphenyl)pyrimidin-4-yl)methyl)-4-fluoro-1-(4-fluorophenylsulfonyl)pyrrolidine-2-carboxamide] | 6.87
17 | O=C(NCc1cc(-c2ccc(C(F)(F)F)cc2)ncn1)[C@@H]1C[C@@H](F)CN1S(=O)(=O)c1ccc(F)cc1 [Example 143, (2S,4R)-4-fluoro-1-(4-fluorophenylsulfonyl)-N-((6-(4-(trifluoromethyl)phenyl)pyrimidin-4-yl)methyl)pyrrolidine-2-carboxamide] | 7.82
18 | O=C(NCc1cc(F)cc(-c2ccc(C(F)(F)F)nn2)c1)[C@@H]1C[C@@H](F)CN1S(=O)(=O)c1ccc(F)cc1 [Example 89, (2S,4R)-4-fluoro-1-(4-fluorophenyl)sulfonyl-N-[[3-fluoro-5-[6-(trifluoromethyl)pyridazin-3-yl]phenyl]methyl]pyrrolidine-2-carboxamide] | 7.70
19 | O=C(NCc1cc([C@H]2CC[C@H](C(F)(F)F)CC2)ncn1)[C@@H]1C[C@@H](F)CN1S(=O)(=O)c1ccc(F)cc1 (single isomer, unassigned) [Example 149] | 7.47
20 | O=C(NCc1cc(-c2ccc(C(F)(F)F)nc2)ncn1)[C@@H]1CCN1S(=O)(=O)c1ccc(F)cc1 [Example 201, (S)-1-(4-fluorophenylsulfonyl)-N-((6-(6-(trifluoromethyl)pyridin-3-yl)pyrimidin-4-yl)methyl)azetidine-2-carboxamide] | 6.57
21 | Cc1cc(CNC(=O)[C@@H]2C[C@@H](F)CN2S(=O)(=O)c2ccc(F)cc2)cc(-c2cnc(C(F)(F)F)nc2)n1 [Example 43, (2S,4R)-4-fluoro-1-(4-fluorophenyl)sulfonyl-N-[[2-methyl-6-[2-(trifluoromethyl)pyrimidin-5-yl]-4-pyridyl]methyl]pyrrolidine-2-carboxamide] | 7.33
22 | O=C(NCc1cc(-c2cnc(C(F)(F)F)nc2)ncc1Cl)[C@@H]1C[C@@H](F)CN1S(=O)(=O)c1ccc(F)cc1 [Example 184, (2S,4R)—N-([5-chloro-2-[2-(trifluoromethyl)pyrimidin-5-yl]pyridin-4-yl]methyl)-4-fluoro-1-[(4-fluorobenzene)sulfonyl]pyrrolidine-2-carboxamide] | 8.00
23 | O=C(NCc1cc(-c2ccc(C(F)(F)F)nc2)ncn1)[C@@H]1CC2(CC2)CN1S(=O)(=O)c1ccc(F)cc1 [Example 80] | 7.36
24 | C[C@@]1(F)C[C@@H](C(=O)NCc2cc(F)cc(-c3ccc(C(F)(F)F)nn3)c2)N(S(=O)(=O)c2ccc(F)cc2)C1 [Example 45, (2S,4R)-4-fluoro-1-(4-fluorophenyl)sulfonyl-N-[[3-fluoro-5-[6-(trifluoromethyl)pyridazin-3-yl]phenyl]methyl]-4-methyl-pyrrolidine-2-carboxamide] | 7.62
25 | N#Cc1cnc(-c2cnc(C(F)(F)F)nc2)cc1CNC(=O)[C@@H]1C[C@@H](F)CN1S(=O)(=O)c1ccc(F)cc1 [Example 189, (2S,4R)—N-([5-cyano-2-[2-(trifluoromethyl)pyrimidin-5-yl]pyridin-4-yl]methyl)-4-fluoro-1-[(4-fluorobenzene)sulfonyl]pyrrolidine-2-carboxamide] | 7.26
26 | O=C(NCc1cc(F)cc(-c2cnc(C(F)(F)F)nc2)c1)[C@@H]1[C@@H](F)CCN1S(=O)(=O)c1ccc(F)cc1 [Example 68, (2R,3S)-3-fluoro-1-(4-fluorophenyl)sulfonyl-N-[[3-fluoro-5-[2-(trifluoromethyl)pyrimidin-5-yl]phenyl]methyl]pyrrolidine-2-carboxamide] | 8.15
27 | O=C(NCc1cc(F)cc(-n2ccc(C(F)(F)F)cc2=O)c1)[C@@H]1C[C@@H](F)CN1S(=O)(=O)c1ccc(F)cc1 [Example 85, (2S,4R)-4-fluoro-N-[[3-fluoro-5-[2-oxo-4-(trifluoromethyl)-1-pyridyl]phenyl]methyl]-1-(4-fluorophenyl)sulfonyl-pyrrolidine-2-carboxamide] | 6.11
